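How tested: cells in 96-well plates exposed to compound for 48 hours at five concentrations. TGI marks complete inhibition of growth.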
Experiments:
Assay in all cases: NCI anticancer screen, dose series, 48 h
MCF7 breast = test system: MCF7 breast
LOX IMVI melanoma = test system: LOX IMVI melanoma
HCT-116 colon = test system: HCT-116 colon
MDA-N = test system: MDA-N
T-47D breast = test system: T-47D breast
SK-MEL-2 melanoma = test system: SK-MEL-2 melanoma
CAKI-1 renal = test system: CAKI-1 renal
HL-60(TB) leukemia = test system: HL-60(TB) leukemia
COLO 205 colon = test system: COLO 205 colon
SN12C renal = test system: SN12C renal
MDA-MB-435 = test system: MDA-MB-435
SF-539 CNS = test system: SF-539 CNS
SNB-19 CNS = test system: SNB-19 CNS
TK-10 renal = test system: TK-10 renal
UO-31 renal = test system: UO-31 renal
KM12 colon = test system: KM12 colon

SMILES | TGI (MCF7 breast) | TGI (LOX IMVI melanoma) | TGI (HCT-116 colon) | TGI (MDA-N) | TGI (T-47D breast) | TGI (SK-MEL-2 melanoma) | TGI (CAKI-1 renal) | TGI (HL-60(TB) leukemia) | TGI (COLO 205 colon) | TGI (SN12C renal) | TGI (MDA-MB-435) | TGI (SF-539 CNS) | TGI (SNB-19 CNS) | TGI (TK-10 renal) | TGI (UO-31 renal) | TGI (KM12 colon)
COc1ccc(C2c3cc4c(cc3OC(NNc3ccccc3)C2C)OCO4)cc1 (stereo not given) | 44.7 µM | > 100 µM | 43.2 µM | > 100 µM | > 100 µM | 98.1 µM | > 100 µM | 20.8 µM | 20.5 µM | 50.8 µM | > 100 µM | 6.55 µM | > 100 µM | > 100 µM | > 100 µM | > 100 µM
CC1=NN=C(C)C1N=Nc1ccc2nc(C)[nH]c2c1 | > 100 µM | > 63.9 µM | > 72.5 µM | > 100 µM | 54.8 µM | 36.3 µM | > 44.7 µM | > 100 µM | > 100 µM | > 100 µM | > 100 µM | > 88.6 µM | > 100 µM | > 100 µM | 77.5 µM | > 100 µM
CC(C)OC(=O)c1ccc(NCc2cc(O)ccc2O)cc1 | 18.9 µM | 15.9 µM | 19.8 µM | 13.2 µM | 4.66 µM | 27.8 µM | 2.81 µM | 1.62 µM | 9.48 µM | 7.3 µM | 12.9 µM | 3.34 µM | > 68.7 µM | 14.7 µM | 2.91 µM | 12.5 µM
Clc1ccc(Cl)c(N=Nc2cc3c4c(c2)CCN4CCC3)c1 | > 10 µM | > 10 µM | > 10 µM | > 10 µM | > 10 µM | > 10 µM | > 10 µM | > 10 µM | > 10 µM | > 10 µM | > 10 µM | > 10 µM | > 10 µM | > 10 µM | > 10 µM | > 10 µM
C[C@@H](CC(O)C(O)C(C)(C)O)C1CCC23CC12CCC1[C@@]2(C)CCC(O)C(C)(C)C2CC(OC2OC(CO)C(O)C(O)C2O)[C@]13C (stereo not given in full) | > 10 µM | > 10 µM | > 10 µM | > 10 µM | > 10 µM | > 10 µM | > 10 µM | > 10 µM | > 10 µM | > 10 µM | > 10 µM | > 10 µM | > 10 µM | > 10 µM | > 10 µM | > 10 µM
COc1ccc(-n2c(CCC(=O)O)nc3c2C(=O)c2ccccc2C3=O)cc1 | > 100 µM | > 100 µM | > 100 µM | > 100 µM | > 100 µM | > 100 µM | > 100 µM | > 100 µM | > 100 µM | > 100 µM | > 100 µM | > 100 µM | > 100 µM | > 100 µM | > 100 µM | > 100 µM
NS(=O)(=O)c1ccc(NC(=O)N/N=C/c2ccccc2O)cc1 | > 100 µM | > 100 µM | > 100 µM | 70.2 µM | > 100 µM | > 100 µM | > 100 µM | > 100 µM | > 100 µM | > 100 µM | 55.6 µM | > 100 µM | > 100 µM | > 100 µM | > 100 µM | > 100 µM
O=C1N/C(=N\N=C\c2ccccc2)C(c2ccccc2)O1 (stereo not given) | > 100 µM | > 100 µM | > 100 µM | > 100 µM | > 100 µM | > 100 µM | > 100 µM | > 100 µM | > 100 µM | > 100 µM | > 100 µM | > 100 µM | > 100 µM | > 100 µM | 33.5 µM | > 100 µM
CCCCOCCOCCOC1=CC(=O)c2c(O)ccc(O)c2C1=O | 4.01 µM | 3.39 µM | 3.22 µM | 0.329 µM | 6.16 µM | 3.52 µM | 3.76 µM | 6 µM | 2.74 µM | 3.22 µM | 0.356 µM | 3.46 µM | 3.19 µM | 5.28 µM | 2.93 µM | 3.3 µM
COc1ccc(C(O)/C(=N/N)c2nc3ccc(Cl)cc3[nH]c2=O)cc1 (stereo not given) | > 100 µM | > 100 µM | > 100 µM | > 100 µM | > 100 µM | > 100 µM | > 100 µM | > 100 µM | > 100 µM | > 100 µM | > 100 µM | > 100 µM | > 100 µM | > 100 µM | > 100 µM | > 100 µM
O[C@]12C=C(c3nccc4c3[nH]c3ccccc34)[C@@H]3CCN(CCCC/C=C\CC1)C[C@@]31CC3/C=C\CCCCN3[C@H]12 (stereo not given in full) | 1.83 µM | 0.84 µM | 0.647 µM | 1.31 µM | 4.67 µM | 0.534 µM | 6.17 µM | 1.08 µM | 1.13 µM | 2.84 µM | 1.53 µM | 4.6 µM | 16.2 µM | 1.95 µM | 0.463 µM | 1.3 µM
CC(C)Oc1c(C2(c3ccccc3)SCCCS2)c(=O)c1=O | > 100 µM | > 100 µM | > 100 µM | > 100 µM | > 100 µM | > 100 µM | > 100 µM | > 100 µM | > 100 µM | > 100 µM | > 100 µM | > 100 µM | > 100 µM | > 100 µM | > 100 µM | > 100 µM
CCN(CC)CCCNc1c2c(Cl)cc(Cl)cc2nc2nc(=O)[nH]c(C)c12 | 53.9 µM | 48.5 µM | 36.9 µM | 37.7 µM | > 100 µM | > 100 µM | > 100 µM | > 100 µM | > 100 µM | > 100 µM | 49.2 µM | > 100 µM | 44.3 µM | > 100 µM | > 100 µM | 31.1 µM
O=C1CN(c2ccccc2)Cc2nc(Cl)ccc2N1 | > 100 µM | > 100 µM | > 100 µM | > 100 µM | > 100 µM | > 100 µM | > 100 µM | > 100 µM | > 100 µM | > 100 µM | > 100 µM | > 100 µM | > 100 µM | > 100 µM | > 100 µM | > 100 µM
C#CC[C@@H]1C(=O)N(Cc2ccc(OC)cc2)[C@@H](C(C)C)C(=O)N1Cc1ccc(OC)cc1 | 54.9 µM | > 100 µM | > 100 µM | 67.1 µM | 51.1 µM | 55.1 µM | > 100 µM | 8.53 µM | 37 µM | > 100 µM | > 100 µM | > 100 µM | > 100 µM | > 100 µM | > 100 µM | > 100 µM
COC(=O)C(CC(C)C)NC(=O)C(NC(=O)c1ccc(-c2ccc(Cl)cc2Cl)o1)C(C)C (stereo not given) | 44.7 µM | 30.9 µM | 29.2 µM | > 100 µM | > 100 µM | 63.2 µM | > 100 µM | 30.8 µM | 52.2 µM | 39.2 µM | > 100 µM | > 100 µM | > 100 µM | 84.5 µM | 61.2 µM | 58.9 µM
CC1(C)CCN2C(=O)C34CCCC3CC21S4 (stereo not given) | > 100 µM | > 100 µM | > 100 µM | > 100 µM | > 100 µM | > 100 µM | > 100 µM | > 100 µM | > 100 µM | > 100 µM | > 100 µM | > 100 µM | > 100 µM | > 100 µM | > 100 µM | > 100 µM
CC(=O)CCCCn1c(=O)c2c(nc(Br)n2C)n(C)c1=O | > 100 µM | > 100 µM | > 100 µM | > 100 µM | > 100 µM | > 100 µM | 3.87 µM | > 100 µM | > 100 µM | > 100 µM | > 100 µM | > 100 µM | > 100 µM | > 100 µM | > 100 µM | > 100 µM
CS(=O)(=O)N1CC(CCl)c2ccc(NO)cc21 (stereo not given) | 35.5 µM | 29.4 µM | 32 µM | 32.4 µM | 60.1 µM | 41.3 µM | 27.6 µM | 20 µM | > 57.2 µM | 32.6 µM | 35.4 µM | 26.1 µM | > 86.4 µM | 51.1 µM | 16.5 µM | 36.2 µM
O=C1Oc2ccccc2C1C/C(=N\Nc1ccccc1)c1ccccc1O (stereo not given) | > 100 µM | > 100 µM | > 100 µM | > 100 µM | 81.8 µM | > 100 µM | > 100 µM | > 100 µM | 32.8 µM | > 100 µM | 76.2 µM | > 100 µM | > 100 µM | > 100 µM | 77.6 µM | 45.8 µM
